assay: blockers of HIV fusion peptide binding, cell-free – biochemical, fluorescence quenching, SAR follow-up (AID 434967); conditions: 30 min

**Q.** For `COc1cc(C=NNc2ccc(Cl)c(C(=O)O)c2)ccc1OC(=O)c1ccccc1F`, which IC50 is on record?
**A.** 25.9 µM

**Q.** For `O=C(N/N=C/c1c(O)n(C2CCCCC2)c(=S)[nH]c1=O)c1ccccc1O`, which IC50 is on record?
**A.** 9 µM

**Q.** For `COc1cc(C=NNc2ccc(Cl)c(C(=O)O)c2)ccc1OC(=O)c1ccc(F)cc1`, which IC50 is on record?
**A.** 8.03 µM

**Q.** For `O=C(O)c1ccccc1N=Nc1c(O)[nH]c2ccc([N+](=O)[O-])cc12`, which IC50 is on record?
**A.** 13.3 µM

**Q.** Which IC50 does the source give for `N#C/C(=C\c1ccc(O)c([N+](=O)[O-])c1)c1nc2ccccc2s1` here?
**A.** 6.25 µM

**Q.** For `COc1ccc(C(=O)Oc2ccc(C=NNc3ccc(Cl)c(C(=O)O)c3)cc2OC)cc1`, which IC50 is on record?
**A.** 5.16 µM

**Q.** With `CCOC(=O)c1sc(N2C(=O)C(O)=C(C(=O)c3ccc(C)o3)C2c2cccc([N+](=O)[O-])c2)nc1C` (stereo not given) as the compound, how does the IC50 read?
**A.** 10.5 µM

**Q.** For `Cc1c2c(=O)n(-c3nc4ccccc4s3)nc-2cc(O)n1Cc1ccccc1`, which IC50 is on record?
**A.** 10.1 µM

**Q.** Which IC50 does the source give for `CC(C)(C)c1cc(-c2csc(Nc3ccccc3)[n+]2Cc2ccc(C(=O)O)cc2)cc(C(C)(C)C)c1O` here?
**A.** 27.3 µM

**Q.** Which IC50 does the source give for `O=C(O)c1cc(NN=Cc2ccc(-c3ccccc3)cc2)ccc1Cl` here?
**A.** 14.8 µM
